Results taken from patent publication US20240398781A1, “SPIROCYCLIC CYCLIC MODULATORS OF CHOLESTEROL BIOSYNTHESIS AND THEIR USE FOR PROMOTING REMYELINATION” (GENENTECH, INC., priority 2021, published 2024).

Legend:
[1] = target: human emopamil binding protein and human 7-dehydrocholesterol reductase co-expressing cells (hEBP-DHCR7 membrane) (Homo sapiens (Human), UniProt Q15125); assay: Radioligand filter binding assay on hEBP-DHCR7 membrane; settings: [3H]-(S)-6-(2-Methyl-3-(6-(trifluoromethyl)pyridin-3-yl)propyl)-2-thia-6-azaspiro[3.4]octane 2,2-dioxide radioligand, HEK293 membrane co-expressing hEBP and hDHCR7
Description: Membrane Preparation: human emopamil binding protein and human 7-dehydrocholesterol reductase co-expressing cells were generated by transient transfecting host human embryonic kidney (HEK) 293 cells with 2 DNA constructs containing each protein's coding sequence. Cells were suspension cultured at 37° C. with 5% CO2 in […] 293 Expression Medium (Thermofisher). Whole cell membrane was prepared by harvesting the cell pellet, adding cold membrane buffer (50 mM Tris, pH7.5, lx Roche COMPLETE EDTA-free protease inhibitor cocktail) 10 times volume of the cell pellets weight, lysing cell pellet on ice by using Dounce homogenizer, spinning at 200 g 4° C. for 15 min, collecting supernatant and spinning again at 25000 g 4° C. for 50 min, transferring pellet to Dounce homogenizer, re-suspending pellet by homogenizing in membrane buffer on ice to reach ˜25 mg/mL, then keeping whole cell membrane aliquots at −80° C.
Compounds were prepared in a 96-well U bottom plate using an Echo550 machine and 10 mM compound DMSO stock solution, followed by an 8-dose 5-fold serial dilutions protocol with final testing compound concentration ranging from 0.06 to 5000 nM, with DMSO back fill to 100 nL/well and n=2. […] The UniFilter-96 GF/B plates were pre-treated by adding 50 μl/well of 0.3% (v/v) PEI to UniFilter-96 GF/B plates. The plates were sealed and incubated at 4° C. for 3 hrs. Then, the plates were washed with ice-cold assay buffer 3 times. The radioligand binding assay was prepared by adding assay buffer diluted hEBP-DHCR7 membrane at 66.7 μg/ml×150 μl/well into the 96-well compound plate to reach 10 μg membrane per well. Then, the assay buffer diluted [3H]—(S)-6-(2-Methyl-3-(6-(trifluoromethyl)pyridin-3-yl)propyl)-2-thia-6-azaspiro[3.4] octane 2,2-dioxide was added at 25 nM×50 μl/well. Following this, the plate was centrifuged at 1000 rpm for 30 secs. The plate was then sealed and agitated at 600 rpm at 22° C. for 5 min, and then incubated at 22° C. for 3 hrs. The incubation was stopped by transferring the binding solution to the pre-treated UniFilter-96 GF/B plate, vacuum filtrated, and then washed four times with ice-cold assay buffer. Following this, the plates were dried at 37° C. for 45 min. The plates were then sealed at the bottom. 40 μl/well of scintillation cocktail was added to the plates. A MicroBeta2 microplate counter was then used to read the plate and analyze the data. For reference and test compounds, the results are expressed as % Inhibition, using the normalization equation: N=100−100×(U−C2)/(C1−C2), where U is the unknown value, C1 is the average of high controls, and C2 is the average value of low controls. The IC50 was determined by fitting percentage of inhibition as a function of compound concentrations with Hill equation using XLfit. Results are expressed as hEBP-DHCR7 Ki (uM) in Table 4. Ki was calculated as described above. The asterix (*) indicates an isolated isomer or isolated group of isomers, but that the stereochemistry has not been assigned.

EpiSC-derived OPCs = assay: In vitro phenotypic screening of OPCs (MBP staining, high-content imaging); type: cell-based, mouse; settings: Mus musculus, 72 h, percentage of MBP+ oligodendrocytes, 3 days, 0.5 nM to 1000 nM; read-out: OPC EC50
Description: To assess effects of treatments on OPCs, all treatments were assayed in two or more independent platings of epiblast stem cell-derived OPCs (EpiSC). EpiSC-derived OPCs were obtained using in vitro differentiation protocols and culture conditions described previously (Najm et al, 2011, Nature Methods). OPCs were expanded and frozen down in aliquots. OPCs were thawed into growth conditions for at least one passage before use in further assays.
EpiSC-derived OPCs were grown and expanded in poly-L-ornithine (PO) and laminin-coated flasks in N2B27 media (DMEM/F12 (Gibco), N2-MAX (R&D Systems), B-27 (ThermoFisher), and GlutaMax (Gibco)) supplemented with FGF2 ([…], R&D systems, 233-FB-025) and PDGF-AA ([…], R&D systems, 233-AA-050) before harvesting for experiments. The cells were seeded onto poly-L-ornithine or poly-D-lysine coated CellCarrier Ultra plates (PerkinElmer) coated with laminin (Sigma, L2020) at a density of 150,000/cm^2 in N2B27 media without growth factors. For dose-response testing, a 1000× compound stock in dimethyl sulphoxide (DMSO) was added to assay plates, resulting in 8-point dose curves with final concentrations between 1000 nM and 0.5 nM. Positive controls and DMSO vehicle controls were included in each assay plate. Cells were incubated under standard conditions (37° C., 5% CO2) for 3 days and fixed with 4% paraformaldehyde (PFA) in phosphate buffered saline (PBS) for 20 min. Fixed plates were washed with PBS, permeabilized with 0.1% Triton X-100, and blocked with 10% donkey serum (v/v) in PBS for 40 min. Then, cells were labelled with MBP antibodies (Abcam, ab7349; 1:200) for 2 h at room temperature, washed with PBS, and stained with Alexa Fluor conjugated secondary antibodies (1:500) for 45 min. Nuclei were visualized by DAPI staining (Sigma; 1 μg/ml), followed by further PBS washes.
Cells and cell culture plates were imaged on the Operetta High Content Imaging and Analysis system (PerkinElmer). Analysis (PerkinElmer Harmony and Columbus software) began by identifying intact nuclei stained by DAPI. The peri-nuclear region of each cell was then cross-referenced with the mature myelin protein (MBP) stain to identify oligodendrocyte nuclei, and from this the percentage of oligodendrocytes was calculated. EC50 values were calculated using The Levenberg-Marquardt algorithm to fit a Hill equation to dose-response data (0.5 nM to 1000 nM).

[2] = system: EBP (zymostenol accumulation in EpiSC-derived OPCs); assay: GC/MS-based sterol profiling, zymostenol accumulation in OPCs; type: cell-based, mouse; settings: Mus musculus, 24 h, EpiSC-derived OPCs, 24 hr treatment, 8 doses from 0.15 nM to 333 nM; read-out: Zymostenol GCMS EC50
Description: To assess effects of treatments on OPCs, all treatments were assayed in two or more independent platings of epiblast stem cell-derived OPCs ([…]-derived OPCs were obtained using in vitro differentiation protocols and culture conditions described previously (Najm et al, 2011, Nature Methods). OPCs were expanded and frozen down in aliquots. OPCs were thawed into growth conditions for at least one passage before use in further assays. Sterols were monitored using a modified Folch wash protocol (Hubler et al, 2018, Nature). EpiSC-derived OPCs were plated at 100,000 cells per well in PO- and laminin-coated 96-well plates in N2B27 media without growth factors. After 24 hours, cells were rinsed with saline and plates were frozen. Cholesterol-d7 standard was then added to each well before drying under nitrogen stream and derivatization with 55 μl of bis(trimethylsilyl) trifluoroacetamide. After derivatization, 2 μl were analyzed by gas chromatography/mass spectrometry using an Agilent 5973 Network Mass Selective Detector equipped with a 6890 gas chromatograph system and a HP-5MS capillary column (30 m×0.25 mm×0.25 mm). Samples were analyzed in full scan mode using electron impact ionization; ion fragment peaks were integrated to calculate sterol abundance, and quantitation was relative to cholesterol-d7. […] All standards were obtained from Avanti Polar Lipids unless otherwise indicated. Calibration curves were generated by injecting varying concentrations of sterol standards and maintaining a fixed amount of cholesterol-D7. For normalized zymostenol accumulation results, the total amount of zymostenol measured after drug treatment was divided by the total amount of zymostenol accumulated after 24 hr treatment with 100 nM positive control reference.

human emopamil binding protein and human 7-dehydrocholesterol reductase co-expressing cells (hEBP-DHCR7 membrane), sequence (Q15125 whole entry): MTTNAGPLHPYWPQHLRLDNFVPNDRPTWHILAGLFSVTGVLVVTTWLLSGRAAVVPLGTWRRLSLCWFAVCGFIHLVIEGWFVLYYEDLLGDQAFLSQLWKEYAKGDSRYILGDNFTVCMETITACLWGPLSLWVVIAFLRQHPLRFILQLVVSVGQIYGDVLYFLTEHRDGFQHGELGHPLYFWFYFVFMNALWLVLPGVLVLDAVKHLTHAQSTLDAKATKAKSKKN

| Ki [1] | EC50 (EpiSC-derived OPCs) | EC50 [2] | Compound |
| --- | --- | --- | --- |
| 31 nM | 2.5 nM | 1.3 nM | CC(C)n1nc(-c2cccc(C(F)(F)F)n2)cc1[C@@H]1CC[C@@H](N2CCC3(CC2)CS(=O)(=O)C3)C1 (single isomer, unassigned) [46A*] |
| 35 nM | 4.9 nM | 2.7 nM | CC(C)n1nc(-c2cccc(C(F)(F)F)n2)cc1[C@@H]1CC[C@H](N2CCC3(CC2)CS(=O)(=O)C3)C1 (single isomer, unassigned) [46B*] |
| 13 nM | 5.2 nM | 1.7 nM | CC(C)n1nc(-c2cccc(C(F)(F)F)n2)cc1[C@H]1CC[C@@H](N2CCC3(CC2)CS(=O)(=O)C3)C1 (single isomer, unassigned) [46C*] |
| 12 nM | 2.4 nM | 1.1 nM | CC(C)n1nc(-c2cccc(C(F)(F)F)n2)cc1[C@H]1CC[C@H](N2CCC3(CC2)CS(=O)(=O)C3)C1 (single isomer, unassigned) [46D*] |
| 12 nM | 2.3 nM | 1.2 nM | CC(C)n1nc(-c2ccc(C(F)(F)F)cc2)nc1[C@H]1CC[C@H](N2CCC3(C2)CS(=O)(=O)C3)C1 (single isomer, unassigned) [53A*] |
| 9.9 nM | 2.4 nM | 0.89 nM | CC(C)n1nc(-c2ccc(C(F)(F)F)cc2)nc1[C@H]1CC[C@@H](N2CCC3(C2)CS(=O)(=O)C3)C1 (single isomer, unassigned) [53B*] |
| 96 nM | 3.3 nM | 1 nM | CC(C)n1nc(-c2ccc(C(F)(F)F)cc2)nc1[C@@H]1CC[C@@H](N2CCC3(C2)CS(=O)(=O)C3)C1 (single isomer, unassigned) [53D*] |

The next lines start with the compound.

| Compound | Ki [1] | EC50 (EpiSC-derived OPCs) | EC50 [2] |
| --- | --- | --- | --- |
| O=S1(=O)CC2(CCN([C@H]3CC[C@@H](c4nc(-c5cccc(C(F)(F)F)n5)nn4C4CC4)C3)CC2)C1 (single isomer, unassigned) [42A*] | 570 nM | 93 nM | 43 nM |
| O=S1(=O)CC2(CCN([C@@H]3CC[C@@H](c4nc(-c5cccc(C(F)(F)F)n5)nn4C4CC4)C3)CC2)C1 (single isomer, unassigned) [42B*] | 390 nM | 180 nM | 58 nM |
| O=S1(=O)CC2(CCN([C@@H]3CCC[C@@H](c4ccc(C(F)(F)F)nc4)C3)C2)C1 (single isomer, unassigned) [54B*] | 100 nM | 1000 nM | 240 nM |
| O=S1(=O)CC2(CCN([C@H]3CCC[C@H](c4ccc(C(F)(F)F)nc4)C3)C2)C1 (single isomer, unassigned) [54D*] | 68 nM | 35 nM | 13 nM |
| O=S1(=O)CC2(CCN([C@@H]3CCCN(c4ccc(C(F)(F)F)cc4)C3)CC2)C1 (single isomer, unassigned) [55A*] | 2.8 nM | 15 nM | 2.3 nM |
| O=S1(=O)CC2(CCN([C@H]3CCCN(c4ccc(C(F)(F)F)cc4)C3)CC2)C1 (single isomer, unassigned) [55B*] | 14 nM | 330 nM | 25 nM |
| CC(C)n1nc(C(F)(F)F)cc1[C@H]1CC[C@@H](N2CCC[C@@]3(CCS(=O)(=O)C3)C2)CC1 (single isomer, unassigned) [91A*] |  | 9.4 nM | 3.4 nM |
| O=S1(=O)CC2(CCN([C@H]3CC[C@H](c4ccc(C(F)(F)F)cn4)CC3)C2)C1 [Compound 49, 6-((1r,4r)-4-(5-(Trifluoromethyl)pyridin-2-yl)cyclohexyl)-2-thia-6-azaspiro[3.4]octane 2,2-dioxide] |  | 15 nM | 9.9 nM |
| O=S1(=O)CC2(CCN([C@H]3CC[C@H](c4ccc(C(F)(F)F)cn4)CC3)CC2)C1 [Compound 50A, 7-((1r,4r)-4-(5-(Trifluoromethyl)pyridin-2-yl)cyclohexyl)-2-thia-7-azaspiro[3.5]nonane 2,2-dioxide] |  | 29 nM | 26 nM |
| O=S1(=O)CC2(CCN([C@H]3CC[C@@H](c4ccc(C(F)(F)F)cn4)CC3)CC2)C1 [Compound 50B, 7-((1s,4s)-4-(5-(trifluoromethyl)pyridin-2-yl)cyclohexyl)-2-thia-7-azaspiro[3.5]nonane 2,2-dioxide] |  | 45 nM | 32 nM |
| O=S1(=O)CC2(CCN([C@H]3CC[C@H](c4cnc(C(F)(F)F)c(F)c4)CC3)C2)C1 [Compound 72A, 6-((1r,4r)-4-(5-fluoro-6-(trifluoromethyl)pyridin-3-yl)cyclohexyl)-2-thia-6-azaspiro[3.4]octane 2,2-dioxide] |  | 18 nM | 9.4 nM |
| O=S1(=O)CC2(CCN([C@H]3CC[C@@H](c4ccnc(C(F)(F)F)c4)CC3)CC2)C1 [Compound 90A, 7-((1s,4s)-4-(2-(Trifluoromethyl)pyridin-4-yl)cyclohexyl)-2-thia-7-azaspiro[3.5]nonane 2,2-dioxide] |  | 240 nM | 31 nM |
| O=S1(=O)CC2(CCN([C@H]3CC[C@@H](c4ccc(C(F)(F)F)cn4)CC3)C2)C1 [Compound 96, 6-((1s,4s)-4-(5-(Trifluoromethyl)pyridin-2-yl)cyclohexyl)-2-thia-6-azaspiro[3.4]octane 2,2-dioxide] |  | 110 nM | 71 nM |
